Results from patent US6787570B2, “Substituted N-cycloalkyl-N-benzyl aminoalcohol compounds useful for inhibiting cholesteryl ester transfer protein activity” (Pfizer, Inc., priority 1999, dated 2004).

target: T1, Human recombinant CETP (Homo sapiens, UniProt P11597); assay: Assay of CETP Inhibition Using Purified Components (Reconstituted Buffer Assay); type: biochemical; details: transfer of [3H]CE from HDL to LDL, 2 hours at 37° C.
T1 construct: made in house; host or cells: CHO cells (serum-free conditioned medium)
T1 sequence (P11597 18-493): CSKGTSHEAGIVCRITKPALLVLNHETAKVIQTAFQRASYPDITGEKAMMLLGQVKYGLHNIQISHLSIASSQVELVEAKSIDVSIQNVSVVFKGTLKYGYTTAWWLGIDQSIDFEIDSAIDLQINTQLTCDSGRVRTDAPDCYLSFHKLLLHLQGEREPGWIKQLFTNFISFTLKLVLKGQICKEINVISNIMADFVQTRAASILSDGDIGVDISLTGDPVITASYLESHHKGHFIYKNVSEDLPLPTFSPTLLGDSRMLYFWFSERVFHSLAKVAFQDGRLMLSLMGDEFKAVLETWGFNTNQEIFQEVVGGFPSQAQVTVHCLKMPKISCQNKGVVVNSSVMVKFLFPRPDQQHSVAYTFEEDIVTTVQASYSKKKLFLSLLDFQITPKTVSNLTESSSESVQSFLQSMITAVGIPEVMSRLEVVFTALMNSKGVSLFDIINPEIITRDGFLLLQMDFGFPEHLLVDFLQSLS
Description: Assay of CETP Inhibition Using Purified Components (Reconstituted Buffer Assay)
The ability of compounds to inhibit CETP activity was assessed using an in vitro assay that measured the rate of transfer of radiolabeled cholesteryl ester ([^3H]CE) from HDL donor particles to LDL acceptor particles. Details of the assay are provided by Glenn, K. C. et al. (Glenn and Melton, “Quantification of Cholesteryl Ester Transfer Protein (CETP): A) CETP Activity and B) Immunochemical Assay of CETP Protein,” Meth. Enzymol., 263, 339-351 (1996)). Human recombinant CETP can be obtained from the serum-free conditioned medium of CHO cells transfected with a cDNA for CETP and purified as described by Wang, S. et al. (J. Biol. Chem. 267, 17487-17490 (1992)). To measure CETP activity, [^3H]CE-labeled-HDL, LDL, CETP and assay buffer (50 mM tris(hydroxymethyl)aminomethane, pH 7.4; 150 mM sodium chloride; 2 mM ethylenediamine-tetraacetic acid (EDTA); 1% bovine serum albumin) were incubated in a final volume of 200 μL, for 2 hours at 37° C. in 96 well plates. Inhibitors were included in the assay by diluting from a 10 mM DMSO stock solution into 16% (v/v) aqueous DMSO so that the final concentration of inhibitor was 800 μM. The inhibitors were then diluted 1:1 with CETP in assay buffer, and then 25 μL of that solution was mixed with 175 μL of lipoprotein pool for assay. Following incubation, LDL was differentially precipitated by the addition of 50 μL of 1% (w/v) dextran sulfate/0.5 M magnesium chloride, mixed by vortex, and incubated at room temperature for 10 minutes. A potion of the solution (200 μL) was transferred to a filter plate (Millipore). After filtration, the radioactivity present in the precipitated LDL was measured by liquid scintillation counting. […] The rate of [^3H]CE transfer using this assay was linear with respect to time and CETP concentration, up to 25-30% of [^3H]CE transferred.
The potency of test compounds was determined by performing the above described assay in the presence of varying concentrations of the test compounds and determining the concentration required for 50% inhibition of transfer of [3H]CE from HDL to LDL. This value was defined as the IC50. The IC50 values determined from this assay are accurate when the IC50 is greater than 10 nM.

CC1CCC(N(Cc2cccc(C(F)(F)F)c2)CC(O)C(F)(F)F)CC1 (stereo not drawn) [Example 1, 3-[(4-methylcyclohexyl)[[(3-trifluoromethyl)phenyl]methyl]amino]-1,1,1-trifluoro-2-propanol] and OC(CN(Cc1cccc(OC(F)(F)F)c1)C1CC1)C(F)(F)F (stereo not drawn) [Example 4] are within 1.5-fold of each other in IC50: 15 µM for the first, 20 µM for the second.

CC(C)N(Cc1cccc(OC(F)(F)F)c1)CC(O)C(F)(F)F (stereo not drawn) [Example 5] and CCCN(Cc1cccc(OC(F)(F)F)c1)CC(O)C(F)(F)F (stereo not drawn) [Example 6] cannot be ordered by IC50: > 100 µM for the first, > 100 µM for the second.

First: CC(C)=CCN(CC(O)C(F)(F)F)c1cccc(OC(F)(F)F)c1 (stereo not drawn) [Example 8]
Second: COC(=O)C=CCN(CC(O)C(F)(F)F)c1cccc(OC(F)(F)F)c1 (stereo not drawn) [Example 13]
The IC50 of the first is 1.8-fold lower: 45 µM for the first, 80 µM for the second. The first is the more potent here.

Compared with CCCCCC=CCN(CC(O)C(F)(F)F)c1cccc(OC(F)(F)F)c1 (stereo not drawn) [Example 9], COCC=CCN(CC(O)C(F)(F)F)c1cccc(OC(F)(F)F)c1 (stereo not drawn) [Example 14] is 3.1-fold higher in IC50: 18 µM for the first, 55 µM for the second. The first is the more potent here.

C#CCN(CC(O)C(F)(F)F)c1cccc(OC(F)(F)F)c1 (stereo not drawn) [Example 10] and CC(C)CCN(CC(O)C(F)(F)F)c1cccc(OC(F)(F)F)c1 (stereo not drawn) [Example 11] are within 1.5-fold of each other in IC50: 50 µM for the first, 45 µM for the second.

C=C(CN(CC(O)C(F)(F)F)c1cccc(OC(F)(F)F)c1)C(=O)OC (stereo not drawn) [Example 12] and OC(CN(Cc1ccc(OC(F)(F)F)cc1)CC(O)C(F)(F)F)C(F)(F)F (stereo not drawn) [Example 17] are the same in IC50: 60 µM for the first, 60 µM for the second.

First: OC(CN(Cc1ccccc1)CC(O)C(F)(F)F)C(F)(F)F (stereo not drawn) [Example 15, 1,1′-[(Phenylmethyl)imino]bis[3,3,3-trifluoro-2-propanol]]
Second: OC(CN(Cc1cccc(C(F)(F)F)c1)CC(O)C(F)(F)F)C(F)(F)F (stereo not drawn) [Example 16]
The IC50 of the first is higher: > 100 µM for the first, 15 µM for the second.

CCc1cc(Oc2cccc(N(CC3CCCCC3)CC(O)C(F)(F)F)c2)ccc1Cl (stereo not drawn) [Example 18, 3-[[3-(4-chloro-3-ethylphenoxy)phenyl][3-cyclohexylmethyl]amino]-1,1,1-trifluoro-2-propanol] showed an IC50 of 11 µM.
